This is an account of results in patent US20060252798A1, “Metal ion chelators and therapeutic use thereof” (priority 2003, published 2006).

In experiment [1] the test system is SK-N-MC neuroepithelioma cells. The experiment is described as follows: MTT cellular proliferation assay, SK-N-MC. It counts as cell-based, human. Background: Formazan colour is commonly taken as a measure of viable cells.
In experiment [2] the test system is M109 carcinoma cells. Put plainly: 59Fe mobilisation from prelabelled M109 cells. It counts as cell-based, mouse. As to conditions: 3 h, control medium 8±1%. The method, then: (§1) The ability of the compound Dp44mT to inhibit the growth of M109 lung carcinoma cells in mice was assessed. Studies were performed using M109 carcinoma cells in culture to determine the effect of Dp44mT on mobilising ^59Fe from these cells (FIG. 11C) and inhibiting ^59Fe uptake from ^59Fe-Tf (FIG. 11D). As internal controls, cells were incubated with DFO and 311. The effect of compound concentration on increasing ^59Fe mobilisation from M109 cells was examined by labelling cells with ^59Fe-Tf (0.75 μM) for 3 h at 37° C. followed by washing and reincubation with the respective compounds (0.2-25 μM) for 3 h at 37° C. (FIG. 11C). […] In contrast, 311 increased cellular ^59Fe release from 8±1% (control medium) to […] at 5 μM (FIG. 11C). For Dp44mT ^59Fe release plateaued at 2 μM, resulting in the efflux of 48±2% of ^59Fe (FIG. 11C).

For another experiment, the system named is MRC-5 fibroblasts. Put plainly: MTT cellular proliferation assay, MRC-5 fibroblasts. It counts as cell-based, human. The settings on record: Table 3, normal cells, 72 h, MTT, read-out: IC50 MRC-5 fibroblasts. How it is done: (§2) The final concentration of the compounds was 0.39-50 μM. […] […] After this incubation, 0.01 mL of MTT was added to each well and the plates incubated for 2 h at 37° C. The cells were then solubilised by adding 0.1 mL of 10% SDS-50% isobutanol in 0.01 M HCl and the plates then read at 570 nm on a scanning multiwell spectrophotometer (Titertek Multiscan; Beckman Instruments Inc, California). MTT colour formation was directly proportional to the number of viable cells.
The MRC-5 cell type is a normal human lung fibroblast cell strain that is mortal and senesces after a number of passages in vitro. The SK-N-MC neuroepithelioma cell type is immortal.
Dp2mT served as a negative control.

Another experiment has as its system Ndrg1. The experiment is described as follows: Ndrg1 expression in MCF-7 cells (Western blotting). It counts as cell-based, human. As to conditions: 25 μM, 24 h, MCF-7 cells (FIG. 16). The method, then:
FIG. 16. […] The expression of Ndrg1 and β-actin protein levels were assessed by Western blotting.
MCF-7 cells were incubated for 24 h with a range of metal ion chelators. […] Dp2mT was used as a negative control, […]
(In western blotting, separated proteins are transferred to a membrane and probed.)

In the next experiment the test system is SK-Mel-28 melanoma cells. Put plainly: MTT cellular proliferation assay, SK-Mel-28. It counts as cell-based, human.
Another experiment deals with NCI H2452 mesothelioma. The experiment is described as follows: MTT cellular proliferation assay, NCI H2452. It counts as cell-based. The settings on record: 72 h, 3 experiments. The method, then: as §2
(§3) At the end of the incubation period, cell density was determined by the MTT assay (described above).

In experiment [3] the test system is M109 carcinoma cells. The experiment is described as follows: 59Fe uptake from 59Fe-Tf by M109 cells. Type of experiment: cell-based, mouse. The method, then: as §1
At 1 μM, 311 reduced ^59Fe uptake to 40±4% of the control. […] Dp44mT had similar activity to 311 up to a concentration of 5 μM, where it reduced ^59Fe uptake to 30±1% of the control (FIG. 11D).

Experiment [4] deals with SK-N-MC neuroepithelioma cells. Put plainly: 59Fe mobilization from prelabelled SK-N-MC neuroepithelioma cells. It counts as cell-based, human. As to conditions: chelators 25 μM, 3 h at 37° C.; media alone released 5% (FIG. 11A). The method, then: The effect of chelators on ^59Fe release from prelabelled cells was studied using standard procedures.^18 Cells were prelabelled with ^59Fe-transferrin (0.75 μM) for 3 h at 37° C. […] The overlying medium was then removed and placed into γ-counting tubes. The cells were removed from the petri dishes in 1 ml of BSS using a plastic spatula and transferred to a separate set of γ-counting tubes.
The ability of the compounds to mobilise ^59Fe from SK-N-MC neuroepithelioma cells was assessed after a 3 h labelling period with ^59Fe-Tf (0.75 μM) at 37° C. […]
DFO and 311 were used as internal standards.

In the next experiment the test system is H69AR lung cancer. Put plainly: MTT cellular proliferation assay, H69AR. It counts as cell-based. The settings on record: 0-50 μM, 72 h, 1 experiment. The method, then: as §2, §3
A further experiment relates to IMR-32 Neuroblastoma. Put plainly: MTT cellular proliferation assay, IMR-32. As to conditions: 72 h, 1 experiment. Type of experiment: cell-based. How it is done:
as §2, §3

For another experiment, the system named is DU 145 prostate cancer. The experiment is described as follows: MTT cellular proliferation assay, DU 145. It counts as cell-based. As to conditions: 72 h, 2 experiments. How it is done:
as §2, §3

Experiment [5] relates to MCF-7 breast cancer cells. Put plainly: MTT cellular proliferation assay, MCF-7. Type of experiment: cell-based, human.
A further experiment deals with HEP G2 Hepatoma. The experiment is described as follows: MTT cellular proliferation assay, HEP G2. It counts as cell-based. As to conditions: 72 h, 1 experiment. How it is done:
as §2, §3

A further experiment concerns M109 lung carcinoma. The experiment is described as follows: In situ TUNEL assay of tumour samples from treated mice. Type of experiment: in vivo, mouse. As to conditions: 0.4 mg/kg, compared to vehicle-treated controls (FIG. 12B).

Molecules are shown by their SMILES. Like-named read-outs stand apart in the source and are kept apart here.

In the case of `CC(=O)N(O)CCCCCNC(=O)CCC(=O)N(O)CCCCCNC(=O)CCC(=O)N(O)CCCCCN` [DFO, desferrioxamine], the IC50 (usually the concentration that inhibits the measured activity by half) in experiment [1] (Homo sapiens, SK-N-MC, 72 h, Table 3, 0-25 μM, 72 h, MTT, mean ± SD, read-out: IC50 SK-N-MC neuroepithelioma) was 5 µM; in experiment [1] (Homo sapiens, SK-N-MC, 90 h, Table 2, MTT assay, 90 h incubation, Mean ± SD, 4 experiments, read-out: IC50 Values of Chelators) it was more than 50 µM; in the experiment with MRC-5 fibroblasts (Homo sapiens, MRC5), more than 25 µM; in the experiment with SK-Mel-28 melanoma cells (Homo sapiens, SK-MEL-28, 72 h, Table 3, mean ± SD), 15 ± 7 µM; in the experiment with NCI H2452 mesothelioma (Homo sapiens, NCI-H2452, 0-50 μM), 32.3 µM; in the experiment with H69AR lung cancer (Homo sapiens, H69AR) it was more than 50 µM. Besides, the IC50 was 9.38 µM in the experiment on IMR-32 Neuroblastoma (Homo sapiens, IMR-32, 0-50 μM); 15.8 µM in the experiment with DU 145 prostate cancer (Homo sapiens, DU-145, 0-50 μM); 14 ± 9 µM in [5] (Homo sapiens, MCF7, 72 h, Table 3, 72 h, MTT, mean ± SD, read-out: IC50 MCF-7 breast cancer); 20 µM in experiment [5] (Homo sapiens, MCF7, values given in Example 8 text, read-out: IC50, anti-proliferative activity in MCF-7 cells); 18.7 µM in the experiment with HEP G2 Hepatoma (Homo sapiens, HepG2, 0-50 μM). Moreover, in the experiment on M109 carcinoma cells [2] (25 μM), the “59Fe released from cells” value was determined as 12±1%. Further, the “up-regulation of Ndrg1” value in the experiment on Ndrg1 was “no effect”. Further, the “inhibition of 59Fe uptake” value in the experiment on M109 carcinoma cells [3] (0.2-25 μM (FIG. 11D)) is reported as “little effect”. For the same compound, the “efflux/mobilisation of total cellular 59Fe” value in experiment [4] is recorded as 11%.

Regarding `CN(C)C(=S)NN=C(c1ccccn1)c1ccccn1` [Dp44mT, di-2-pyridylketone 4,4-dimethyl-3-thiosemicarbazone], in the experiment on M109 lung carcinoma, the “apoptotic cell death in tumour samples” value is “increased apoptotic cell death”. Moreover, the IC50 is 0.03 ± 0.01 µM in [1] (Table 3, 0-25 μM, 72 h, MTT, mean ± SD, read-out: IC50 SK-N-MC neuroepithelioma); more than 25 µM with MRC-5 fibroblasts; 0.06 ± 0.03 µM in the experiment on SK-Mel-28 melanoma cells (Table 3, 72 h, mean ± SD); 0.01 µM in the experiment with NCI H2452 mesothelioma (0-50 μM); 0.05 µM in the experiment on H69AR lung cancer; 0.01 µM with IMR-32 Neuroblastoma (0-50 μM). For the same compound, the IC50 with DU 145 prostate cancer (0-50 μM) was found to be 0.06 µM; in experiment [5] (Table 3, 72 h, MTT, mean ± SD, read-out: IC50 MCF-7 breast cancer), 0.06 ± 0.01 µM; in experiment [5] (values given in Example 8, read-out: IC50, anti-proliferative activity in MCF-7 cells), 0.1 µM; with HEP G2 Hepatoma (0-50 μM) it was 1.36 µM. Further, in the experiment on M109 carcinoma cells [2] (2 μM), the “efflux of 59Fe (plateau)” value is 48±2%. For the same compound, in the experiment with Ndrg1, the “up-regulation of Ndrg1” value was “markedly increased”. Moreover, the 59Fe uptake with M109 carcinoma cells [3] (5 μM) is 30±1 % of the control. Further, the “efflux/mobilisation of total cellular 59Fe” value in experiment [4] amounted to 47%.
